Laboratory results taken from patent publication US20240409517A1, “ORGANIC COMPOUNDS” (GIVAUDAN SA, priority 2021, published 2024).

Assays:
Format in all cases: in vivo
[1] = test system: sensory panel; experiment: Taste in water by a sensory panel
[2] = test system: sensory panel; experiment: Salt enhancement in 0.5% NaCl aqueous solution, sensory panel; details: 0.5% NaCl aq. solution with 50 ppm compound, compared with 0.5% NaCl alone
Source text: The solutions were tasted by a sensory panel. Solution A was describes as “salty”.
Aqueous solutions comprising 0.5% NaCl and 50 ppm of the compounds of example 2-21, respectively, have been prepared and tasted by a sensory panel in comparison with an aqueous solution comprising 0.5% NaCl.
Aqueous solutions comprising 0.5% NaCl and 50 ppm of the compounds of example 38-58, respectively, have been prepared and tasted by a sensory panel in comparison with an aqueous solution comprising 0.5% NaCl.

[3] = test system: sensory panel; experiment: Salt enhancement in 0.3% NaCl solution at different concentrations, sensory panel
[4] = test system: sensory panel; experiment: Umami enhancement in savoury model solution (NaCl, MSG, Ribotides), sensory panel; details: 0.5% NaCl, 0.03% MSG, 0.007% Ribotides with 50 ppm compound, compared with solution A without compound
Source text: The solutions were tasted by a sensory panel. Solution A is a model solution for savoury taste, containing MSG (monosodium glutamate) and Ribotides (IMP/GMP, 50/50 mixture) as savoury taste enhancer.
Two aqueous solutions have been prepared: • A) 0.5% NaCl, 0.03% MSG, 0.007% Ribotides, and • B) 0.5% NaCl, 0.03% MSG, 0.007% Ribotides and 50 ppm of the compound of example 38-58, respectively.

[5] = test system: sensory panel; experiment: Bitter masking in 0.3% KCl solution, sensory panel; details: 0.3% KCl with 50 ppm compound, compared with 0.3% KCl alone
Source text: (§1) The solutions were tasted by a sensory panel.

[6] = test system: sensory panel; experiment: Effect on model broth base, sensory panel; details: model broth base with 0.3% NaCl, 50 ppm compound
Source text: A model broth base, comprising 0.3% of NaCl was compared with a sample further comprising 50 ppm of the compound of example 1.
as §1

[7] = test system: sensory panel; experiment: Effect on cheese sauce, sensory panel; details: 50 ppm compound
Source text: The effect of the compound of example 1 on cheese sauce was explored. Therefore, a cheese sauce has been compared by a sensory panel with a sample of the sauce further comprising 50 ppm of the compound of example 1.

[8] = test system: sensory panel; experiment: Effect on potato chips, sensory panel; details: potato chips with 1.5% salt, 70 ppm compound
Source text: Potato chips with 1.5% salt have been tasted by a sensory panel with and without additional compound of example 1.

[9] = test system: sensory panel; experiment: Effect on mayonnaise, sensory panel; details: commercially available mayonnaise, 70 ppm compound
Source text: Samples of commercially available mayonnaise with and without addition of the compound of example 1 have been compared by a sensory panel.

[10] = test system: sensory panel; experiment: Effect on corn curls with cheese flavor, sensory panel; details: 70 ppm compound
Source text: Corn curls with cheese flavor with and without addition of the compound of example 1 have been compared by a sensory panel.

[11] = test system: sensory panel; experiment: Effect on vegan cheese, sensory panel; details: vegan cheese with 0.2% cheese parmesan natural flavor, 70 ppm compound
Source text: Samples of vegan cheese comprising 0.2% cheese parmesan natural flavor have been compared with and without the compound of example 1 by a sensory panel.

[12] = test system: sensory panel; experiment: Effect on soy based vegan burger, sensory panel; details: 70 ppm compound
Source text: Soy based vegan burgers with and without the compound of example 1 have been tasted by a sensory panel.

[13] = test system: sensory panel; experiment: Effect on processed meat, sensory panel; details: 70 ppm compound
Source text: Samples of processed meat with full salt flavor and sodium reduced flavor have been tasted by a sensory panel with and without the compound of example 1.
Sample 1 was comprising a full salt flavor base.
Sample 2 was comprising a full salt flavor base and 70 ppm of the compound of example 1.
Sample 3 was comprising a salt reduced (33.3%) flavor base and a saltiness flavor modulator.comprising KCl.
Sample 4 was comprising a salt reduced (33.3%) flavor base, a saltiness flavor modulator.comprising KCl, and 70 ppm of the compound of example 1.

Which “taste effect in water” value ([1]; 50 ppm or higher, noticeable up to 1000 ppm) does the source give for `O=C(/C=C/c1c[nH]cn1)NCCc1c[nH]cn1` [Example 1, (2E)-3-(1H-imidazol-4-yl)-N-[2-(1H-imidazol-4-yl)ethyl]prop-2-enamide] here?
The value was “slight effect of mouth drying”.

And the “taste effect in water” value ([1]; up to 40 ppm)?
The value was “no effect was noticed”.

What about the “taste as such in water” value ([1]; up to 1000 ppm) of the same compound?
Its value is “no taste as such was perceived, in particular no saltiness”.

And the “salty taste versus 0.5% NaCl solution” value [2]?
The value was “more salty with a mineralic note”.

What about the “upper level at which the salt enhancing effect was perceived” value [3] of the same compound?
Its value is “up to 200 ppm”.

What about the “salt enhancement in 0.3% NaCl solution” value ([3]; 1 ppm or higher) of the same compound?
The value was “a salt enhancing effect, providing a more lingering, mineralic and fuller salt taste”.

What about the “salt enhancement in 0.3% NaCl solution” value ([3]; below 1 ppm) of the same compound?
Its value is “No salt enhancement was perceived”.

What about the “saltiness and umami versus savoury model solution” value [4] of the same compound?
The value was “strong boost of saltiness and umami”.

And the “bitter and salty taste versus 0.3% KCl solution” value [5]?
Its value is “less bitter and more salty and mineral”.

And the “acidity of the broth base” value [6]?
The value was “The sharp acidity of the broth base was reduced”.

And the “taste versus model broth base” value [6]?
The value was “more mineral and salty”.

What about the “taste versus plain cheese sauce” value [7] of the same compound?
Its value is “more mineral and salty, with a mineralic linger, and having a natural aged cheese character”.

And the “taste versus potato chips without compound” value [8]?
The value was “a higher salty impact and a lingering effect”.

What about the “taste versus pure mayonnaise” value [9] of the same compound?
The value was “instant tingly salty with a mineral linger and enhanced acidity”.

And the “taste versus corn curls without compound” value [10]?
Its value is “more salty, lingering and mineralic”.

And the “taste versus vegan cheese without compound” value [11]?
Its value is “more salty and mineral, and the overall taste is lifted”.

What about the “taste versus vegan burger without compound” value [12] of the same compound?
Its value is “more salty, having a mineral linger, contributing well to the perception of a burger”.

What about the “taste of processed meat, sample 2 versus sample 1” value ([13]; full salt flavor base) of the same compound?
The value was “more salty and mineral”.

What about the “taste of processed meat, sample 4 versus sample 1” value ([13]; salt reduced (33.3%) flavor base with saltiness flavor modulator comprising KCl) of the same compound?
Its value is “improved salt-peak, increased salinity, prolonged saltiness, significantly reduced bitterness and astringency, and increased salivation”.
